For 64 compounds, logP and logD results are on record in the SangsterLogP compilation.

Test in one series: not given
Conditions: not given
On to `CC(=O)C1(O)Cc2c(O)c3c(c(O)c2C(OC2CC(N)C(O)C(C)O2)C1)C(=O)c1ccccc1C3=O` (centres undefined), for which the logP worked out at 0.68.

`CC(=O)C1(O)Cc2c(O)c3c(c(O)c2C(OC2CC(N)C(O)C(C)O2)C1)C(=O)c1c(O)cccc1C3=O` (centres undefined): the logP stood at 0.96.

For `COC1C(N)CC(OC2CC(O)(C(=O)CO)Cc3c(O)c4c(c(O)c32)C(=O)c2ccccc2C4=O)OC1C` (centres undefined), the logP worked out at 0.39.

For the compound `COc1cccc2c1C(=O)c1c(O)c3c(c(O)c1C2=O)C[C@@](O)(C(=O)CO)C[C@@H]3O[C@H]1C[C@H](N)C[C@H](C)O1`, the lipophilicity (logP) is 0.01.

Test in another series: not given
Conditions: not given
The source holds these as a separate data set.
The compound `OC1(c2ccc(I)cc2)c2ccccc2C2=NCCN21` (centres undefined) registered a logP of 2.2.

For `OC1(c2ccc(F)cc2)c2ccccc2C2=NCCN21` (centres undefined), the logP was found to be 0.95.

Compound `OC1(c2ccc(Br)cc2)c2ccccc2C2=NCCN21` (centres undefined) had a logP of 1.9.

Turning to `OC1(c2cccc(F)c2)c2ccccc2C2=NCCN21` (centres undefined), the logP came to 1.28.

The next series can be described thus: method code SF-AS, from PMID: 5136171.
Conditions: not given
Regarding `CCOC(=O)c1cnc2cc(OCCOC(C)C)c(OCC(C)C)cc2c1O`, the logP turned out to be 2.17.

Compound `CCOC(=O)c1cnc2cc(OCc3ccccc3)c(OCCOC)cc2c1O` displayed a logP of 1.95.

The compound `CCOC(=O)c1cnc2cc(OCC(C)C)c(OCC(C)C)cc2c1O` yielded a logP of 2.18.

`CCOC(=O)c1cnc2cc(OCCOC)c(OC)cc2c1O` registered a logP of 1.36.

Test in the next series: not given
Conditions: not given
The source holds these as a separate data set.
For the compound `CC1CCC2C(C)C(OC3OC(C(=O)O)C(O)C(O)C3O)OC3OC4(C)CCC1C32OO4` (centres undefined), the logP was determined as 1.08.

`CCOC1OC2OC3(C)CCC4C(OC5OC(C(=O)O)C(O)C(O)C5O)CCC(C1C)C24OO3` (centres undefined): the logP was found to be 1.05.

The compound `CCOC1OC2OC3(C)C=C(O)C4C(C)CCC(C1C)C24OO3` (centres undefined) displayed a logP of 2.7.

For the compound `CCOC1OC2OC3(C)CC(OC4OC(C(=O)O)C(O)C(O)C4O)C4C(C)CCC(C1C)C24OO3` (centres undefined), the logP came out at 1.73.

Test in another series: not given
Conditions: not given
The source holds these as a separate data set.
`CCC(c1c(O)c2ccccc2oc1=O)c1c(O)c2ccccc2oc1=O`: the logP is 2.02.

For `CCOC(=O)C(c1c(O)c2ccccc2oc1=O)c1c(O)c2ccccc2oc1=O`, the logP is 1.32.

`COCC(c1c(O)c2ccccc2oc1=O)c1c(O)c2ccccc2oc1=O`: the logP was found to be 1.38.

In turn, `O=c1oc2ccccc2c(O)c1C(c1ccccc1)c1c(O)c2ccccc2oc1=O` yielded a lipophilicity (logP) of 1.95.

Test in the next series: not given
Conditions: not given
This is another data set of the same source.
For the compound `O=c1[nH]ccc2c(Nc3c(Cl)cc(C(O)C(F)F)cc3Cl)nc3ccncc3c12` (centres undefined), the logP was determined as 1.46.

`O=c1[nH]ccc2c(Nc3c(F)cc(F)cc3Cl)nc3ccncc3c12` registered a lipophilicity (logP) of 1.75.

In turn, `O=c1[nH]ccc2c(Nc3c(Cl)cc(C4=NNCC4)cc3Cl)nc3ccncc3c12` returned a logP of 1.43.

The compound `CC(O)c1cc(Cl)c(Nc2nc3ccncc3c3c(=O)[nH]ccc23)c(Cl)c1` (centres undefined) showed a logP of 1.2.

Test in the next series: not given
Conditions: not given
The source holds these as a separate data set.
Compound `COc1cccc(OC)c1C(=O)N[C@@H]1C(=O)N2[C@@H]1SC(C)(C)[C@@H]2C(=O)O` registered a logP of 1.22.

As to `CC1(C)S[C@@H]2[C@H](NC(=O)Cc3ccccc3)C(=O)N2[C@H]1C(=O)O`, the lipophilicity (logP) turned out to be 1.83.

For the compound `CC1(C)SC2C(NC(O)c3ccccc3)C(=O)N2C1C(=O)O` (centres undefined), the logP turned out to be 1.4.

In the case of `CC1(C)SC2C(NC(=O)CCOc3ccccc3)C(=O)N2C1C(=O)O` (centres undefined), the logP is 2.28.

Another series is described as follows: method code SF-AS, from DOI: 10.1006/pest.1994.1014.
Conditions: not given
Take `CC(C)(C)N(NC(=O)c1cccc(F)c1)C(=O)c1ccccc1Cl`: the logP is 2.88.

Consider `CC(C)(C)N(NC(=O)c1cccc(Cl)c1)C(=O)c1ccccc1Cl`, for which the logP amounted to 3.49.

The compound `CC(C)(C)N(NC(=O)c1ccccc1F)C(=O)c1ccccc1Cl` showed a logP of 2.63.

Compound `Cc1cccc(C(=O)NN(C(=O)c2ccccc2Cl)C(C)(C)C)c1` returned a logP of 3.11.

The nature of another series: method code SF-HPLC, from DOI: 10.1002/etc.5620081103.
Conditions: not given
`O=C1C(c2nc3ccccc3cc2O)=C(O)c2ccccc21` came in with a logP of 5.

Take `COc1cc(N=Nc2c(Br)cc([N+](=O)[O-])cc2Br)c(NC(C)=O)cc1N(CCOC(C)=O)CCOC(C)=O`: the logP amounted to 4.8.

Consider `C=CCN(CCC#N)c1cc(NC(C)=O)c(/N=N/c2c(Br)cc([N+](=O)[O-])cc2[N+](=O)[O-])cc1OC`, for which the logP worked out at 5.4.

`CC(=O)OCCN(CCC#N)c1ccc(/N=N/c2nc3ccc([N+](=O)[O-])cc3s2)cc1` gave a logP of 4.6.

Another series is described as follows: method code SF-HPLC, from DOI: 10.1002/jlac.1995199512305.
Conditions: not given
For the compound `Cc1cn(C2CC(N=[N+]=[N-])C(COP(=O)(OCC3OC(n4cc(C)c(=O)[nH]c4=O)CC3N=[N+]=[N-])C(O)c3ccc([N+](=O)[O-])cc3[N+](=O)[O-])O2)c(=O)[nH]c1=O` (centres undefined), the lipophilicity (logP) was determined as 0.94.

In turn, `COc1ccc(C(O)P(=O)(OCC2OC(n3cc(C)c(=O)[nH]c3=O)CC2N=[N+]=[N-])OCC2OC(n3cc(C)c(=O)[nH]c3=O)CC2N=[N+]=[N-])cc1` (centres undefined) returned a logP of 0.72.

In turn, `Cc1cn(C2CC(N=[N+]=[N-])C(COP(=O)(OCC3OC(n4cc(C)c(=O)[nH]c4=O)CC3N=[N+]=[N-])C(O)c3ccc([N+](=O)[O-])cc3)O2)c(=O)[nH]c1=O` (centres undefined) returned a logP of 0.83.

In turn, `Cc1cn(C2CC(N=[N+]=[N-])C(COP(=O)(OCC3OC(n4cc(C)c(=O)[nH]c4=O)CC3N=[N+]=[N-])C(O)c3ccc(Cl)cc3)O2)c(=O)[nH]c1=O` (centres undefined) gave a logP of 1.45.

A further series in a line: method code SF-AS, from DOI: 10.1016/0048-3575(88)90061-2.
Conditions: not given
Consider `O=C(NC(=O)c1c(F)cccc1F)Nc1ccc(Oc2ccc(C(F)(F)F)cn2)cc1`, for which the logP was 2.8.

As to `O=C(NC(=O)c1c(F)cccc1F)Nc1ccc(Oc2ncc(C(F)(F)F)cc2Cl)cc1`, the logP came out at 3.53.

Consider `O=C(NC(=O)c1c(F)cccc1F)Nc1ccc(Oc2ccccn2)cc1`, for which the logP is 1.57.

`O=C(NC(=O)c1c(F)cccc1F)Nc1ccc(Oc2ncc(Cl)cc2C(F)(F)F)cc1` registered a logP of 3.5.

Another series is described as follows: method code SF-AS, from DOI: 10.1080/10826076.2011.619030.
Conditions: not given
In turn, `CC1(C)OC2C(COC3CC(O)C(O)C(CO)O3)OC(n3ccc(=O)n(Cc4ccccc4)c3=O)C2O1` (centres undefined) yielded a logP of 0.59.

Take `CC1(C)OC2C(COC3CC(O)C(O)C(CO)O3)OC(n3ccc(=O)n(C(=O)c4ccccc4)c3=O)C2O1` (centres undefined): the log partition coefficient (logP) worked out at 0.13.

For the compound `CC1(C)OC2C(COC3CC(O)C(O)C(CO)O3)OC(n3ccc(=O)[nH]c3=O)C2O1` (centres undefined), the logP was -1.56.

`CC1(C)OC2C(COC(=O)c3ccccc3)OC(n3ccc(=O)[nH]c3=O)C2O1` (centres undefined) registered a logP of 1.29.

Another series in a line: method code SF-HPLC, from DOI: 10.1016/0378-5173(92)90116-j. The settings on record: pH 7.4.
For `CCC(C(=O)OCc1cccc(COC(=O)C(CC)C(CO)Cc2cncn2C)c1)C(CO)Cc1cncn1C` (centres undefined), the logD worked out at 1.99.

`CCC(C(=O)OCCCOC(=O)C(CC)C(CO)Cc1cncn1C)C(CO)Cc1cncn1C` (centres undefined): the pH-dependent lipophilicity (logD) was 0.68.

In turn, `CCC(C(=O)OCCCCOC(=O)C(CC)C(CO)Cc1cncn1C)C(CO)Cc1cncn1C` (centres undefined) came in with a logD of 1.16.

In turn, `CCC(C(=O)OCCCCCCOC(=O)C(CC)C(CO)Cc1cncn1C)C(CO)Cc1cncn1C` (centres undefined) came in with a logD of 1.84.

A short description of another series: method code SF-AS, from DOI: 10.1021/jm00371a026, PMID: 6425501. As to conditions: pH 7.4.
On to `CO[C@@]12[C@H](COC(N)=O)C3=C(C(=O)C(C)=C(Nc4ccc(C)nc4)C3=O)N1C[C@@H]1N[C@@H]12`, for which the logD turned out to be 0.59.

In turn, `CO[C@@]12[C@H](COC(N)=O)C3=C(C(=O)C(C)=C(Nc4ccccc4)C3=O)N1C[C@@H]1N[C@@H]12` displayed a logD of 1.3.

Turning to `CO[C@@]12[C@@H]3N[C@@H]3CN1C1=C(C(=O)C(Nc3nc(C)cs3)=C(C)C1=O)[C@@H]2COC(N)=O`, the logD was determined as 1.16.

`CO[C@@]12[C@H](COC(N)=O)C3=C(C(=O)C(C)=C(Nc4nc(C)c(C)s4)C3=O)N1C[C@@H]1N[C@@H]12`: the logD amounted to 1.29.

A short description of a further series: method code SF-AS, from DOI: 10.1211/0022357001777513, PMID: 11186244. As to conditions: pH 7.3.
With `OCC(O)COc1cccc(-c2c3nc(c(-c4cccc(OCC(O)CO)c4)c4ccc([nH]4)c(-c4cccc(OCC(O)CO)c4)c4nc(c(-c5cccc(OCC(O)CO)c5)c5ccc2[nH]5)C=C4)C=C3)c1` (centres undefined), the pH-dependent lipophilicity (logD) amounted to 4.83.

Consider `Oc1ccc(-c2c3nc(c(-c4ccc(O)cc4)c4ccc([nH]4)c(-c4ccc(O)cc4)c4nc(c(-c5ccc(O)cc5)c5ccc2[nH]5)C=C4)C=C3)cc1`, for which the logD amounted to 4.77.

The nature of another series: from Wadhwa, L.; Chandiran, S.; Sharma, P. (2004). Alkyl esters of 6-methoxy-2-naphthylacetic acid as potential prodrugs - Synthesis, physicochemical properties, chemical stability and enzymatic …. As to conditions: pH 7.4.
For the compound `CCOC(=O)Cc1ccc2cc(OC)ccc2c1`, the logD worked out at 3.04.

As to `CCCOC(=O)Cc1ccc2cc(OC)ccc2c1`, the logD came out at 4.14.

The nature of another series: method code SF-AS, from Kourounakis, P.; Chilliard, N. (1983). Ionization constants and partition coefficients of some 1,1-diphenyl-1-alkoxy-3-dialkylamino-2-propanones with analgesic activity. Pharmazie, 38(6)388-389. The settings on record: pH 7.4.
Regarding `CCOC(C(=O)CN1CCOCC1)(c1ccccc1)c1ccccc1`, the logD is 1.08.

Take `C#CCOC(C(=O)CN(C)C)(c1ccccc1)c1ccccc1`: the logD came to 0.7.

Compound `CC#CCOC(C(=O)CN(C)C)(c1ccccc1)c1ccccc1` returned a logD of 0.85.

`CCCOC(C(=O)CN(C)C)(c1ccccc1)c1ccccc1` had a logD of 1.73.

By logP is commonly meant a log measure of how a compound divides between an organic and an aqueous phase. The term logD denotes the decadic logarithm of the distribution of all forms, ionised or not, between an organic phase and buffer at a given pH.
